Reference: patent US9382572B2, “Methods of determining biocide efficacy or mechanism of action using flow cytometry” (Ecolab USA Inc., priority 2013, dated 2016)

Assays:
[1] = system: E. coli growth in LB media; experiment: Synergy between DDAC and TTPC by flow cytometry, Example 3; settings: 40 ppm of biocide, ratio DDAC:TTPC
[2] = system: Cultures of E. coli; experiment: Viability by standard culture method (serial dilution in LB media), Example 6; format: cell-based; settings: Escherichia coli, 4 hours at 37° C., n=3, ± 1 standard deviation, read-out: reduced viable bacteria (serial dilution culturing)
Protocol: (§1) Cultures of E. coli were left untreated or treated with tributyltetradecyl phosphonium chloride (TTPC) at 75 ppm, 150 ppm, or 300 ppm. Flow cytometry samples were prepared as described in Example 1 and triplicate culture bottles were prepared of the treated E. coli and untreated E. coli after 4 hours of incubation at 37° C. […] Viability was measured by flow cytometry and serial dilution in LB media. […] Error bars indicate 1 standard deviation. An asterisk indicates a statistically significant difference (p<0.05) and two asterisk indicates a p-value <0.01.

[3] = system: Cultures of E. coli; experiment: Viability measured by flow cytometry, Example 6; format: cell-based; settings: Escherichia coli, 4 hours at 37° C., n=3, ± 1 standard deviation, read-out: reduced viable bacteria (flow cytometry)
Protocol: as §1

[4] = system: E. coli in LB media; experiment: Effect of citric acid treatment on flow cytometry viable bacteria, Examples 8-9; format: cell-based, Escherichia coli; settings: concentration less than or equal to 20 mM

CCCCCCCCCC[N+](C)(C)CCCCCCCCCC.[Cl-] [10:0, didecyldimethylammonium chloride]
Depolarized and Membrane-damaged/mL [1]: 555000 mL⁻¹
Depolarized/mL [1]: 1.45e+06 mL⁻¹
Membrane-damaged/mL [1]: 349 mL⁻¹
Viable/mL [1]: 5390 mL⁻¹

CCCCCCCCCCCCCC[P+](CCCC)(CCCC)CCCC.[Cl-] [TTPC, tributyl tetradecyl phosphonium chloride]
inhibition at 75 ppm ([2]; 75 ppm): 99%
inhibition at 150 ppm ([2]; 150 ppm): 100%
inhibition at 300 ppm ([2]; 300 ppm): 100%
Depolarized and Membrane-damaged/mL [1]: 1.67e+06 mL⁻¹
Depolarized/mL [1]: 2.54e+06 mL⁻¹
Membrane-damaged/mL [1]: 537 mL⁻¹
Viable/mL [1]: 6330 mL⁻¹
inhibition at 75 ppm ([3]; 75 ppm): 97.9%
inhibition at 150 ppm ([3]; 150 ppm): 99.7%
inhibition at 300 ppm ([3]; 300 ppm): 100%

O=C(O)CC(O)(CC(=O)O)C(=O)O [citric acid]
effect on cell viability when analyzed by flow cytometry [4]: does not affect the cell viability
